Measured values as given in patent US9580432B2, “Fused pyrimidine compound or salt thereof” (TAIHO PHARMACEUTICAL CO., LTD., priority 2013, dated 2017).

Assays:
[1] = system: purified recombinant human EGFR protein / BTK; test: BTK inhibition selectivity compared with EGFR kinase inhibitory activity (in vitro); type: biochemical; settings: EGFR assay ATP 1.5 μM
Procedure: 1) Measurement of BTK Inhibitory Activity
2) Measurement of EGFR Inhibitory Activity
Therefore, a biotinated peptide (biotin-[…]) was produced by referring to the amino acid sequence of the peptide. The purified recombinant human EGFR protein used in the test was purchased from Carna Biosciences, Inc.
With regard to the measurement of the inhibitory activity of the compounds, firstly, the compounds of the present invention were diluted stepwise with dimethyl sulfoxide (DMSO). […] The reaction was terminated by adding EDTA thereto in order to obtain a final concentration of 24 mM. Subsequently, a detection liquid containing Eu-labeled anti-phosphorylated tyrosine antibody PT66 (PerkinElmer, Inc.) and […] APC-SA (PerkinElmer, Inc.) was added thereto, and the system was left to stand for 2 hours or longer at room temperature.
3) BTK Inhibition Selectivity

[2] = target: purified recombinant human BTK protein (Homo sapiens (Human), UniProt Q06187); test: Measurement of BTK inhibitory activity (in vitro); type: biochemical; settings: FL-PEPTIDE 2 substrate 1 μM, ATP 45 μM, 40 minutes at 25° C.
Chain of purified recombinant human BTK protein (Q06187 whole entry): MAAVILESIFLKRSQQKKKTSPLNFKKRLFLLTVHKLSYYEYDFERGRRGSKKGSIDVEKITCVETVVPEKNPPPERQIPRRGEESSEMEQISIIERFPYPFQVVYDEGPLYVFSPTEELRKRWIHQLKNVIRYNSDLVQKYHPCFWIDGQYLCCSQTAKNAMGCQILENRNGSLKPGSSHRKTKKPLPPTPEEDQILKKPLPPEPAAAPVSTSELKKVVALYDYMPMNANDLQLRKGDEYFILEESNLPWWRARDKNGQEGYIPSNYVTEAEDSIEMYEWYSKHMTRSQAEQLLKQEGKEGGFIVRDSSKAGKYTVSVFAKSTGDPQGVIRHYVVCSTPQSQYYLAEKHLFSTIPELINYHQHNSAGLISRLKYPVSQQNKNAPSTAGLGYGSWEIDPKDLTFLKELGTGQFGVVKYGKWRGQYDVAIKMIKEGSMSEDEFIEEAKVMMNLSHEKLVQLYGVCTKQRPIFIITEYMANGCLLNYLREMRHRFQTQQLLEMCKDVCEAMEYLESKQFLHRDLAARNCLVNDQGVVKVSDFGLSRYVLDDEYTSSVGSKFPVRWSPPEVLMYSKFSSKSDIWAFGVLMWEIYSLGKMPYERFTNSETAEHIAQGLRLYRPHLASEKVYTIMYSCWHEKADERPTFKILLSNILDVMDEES
Excerpt: With regard to the setting of the conditions for a method for measuring the inhibitory activity of a compound against BTK kinase activity in vitro, it is described in the consumable reagent supplies price list for LabChip (registered trademark) series of PerkinElmer, Inc. that FL-PEPTIDE 2 corresponds to a substrate peptide for the measurement of BTK kinase activity. Therefore, FL-PEPTIDE 2 was used as a substrate. The purified recombinant human BTK protein used in the test was purchased from Carna Biosciences, Inc.
With regard to the measurement of the inhibitory activity of the compounds, firstly, the compounds of the present invention were diluted stepwise with dimethyl sulfoxide (DMSO). Subsequently, BTK protein, a substrate peptide (final concentration was 1 μM), magnesium chloride (final concentration was 10 mM), ATP (final concentration was 45 μM), and a DMSO solution of the compounds of the present invention (final concentration of DMSO was 5%) were added to a buffer solution for kinase reaction (20 mM HEPES (pH 7.5), 2 mM dithiotheitol, 0.01% Triton X-100), and after the solution was incubated for 40 minutes at 25° C., a kinase reaction was carried out. The reaction was terminated by adding EDTA thereto in order to obtain a final concentration of 30 mM. Finally, a substrate peptide that was not phosphorylated (S) and a phosphorylated peptide (P) were separated and detected by microchannel capillary electrophoresis using a LabChip EZ Reader II (PerkinElmer, Inc.).

[3] = system: A431 cells / TMD8 cells; test: Proliferation inhibitory activity against cell lines expressing BTK and EGFR (in vitro), comparison of selectivity; type: cell-based, human; settings: ratio from GI50 (nM), 3 days culture, CELLTITER GLO
Excerpt: TMD8 cells, which are of a diffuse large B-cell lymphoma cell line expressing BTK, were suspended in RPMI1640 medium (manufactured by Life Technologies Corp.) containing 10% fetal bovine serum. A431 cells, which are of an EGFR-overexpressing, highly activated human epidermoid carcinoma cell line, were suspended in DMEM, high glucose medium (manufactured by Life Technologies Corp.) containing 10% fetal bovine serum. The cell suspensions were inoculated into each well of 384-well flat-bottomed microplates, and the cells were cultured for 1 day at 37° C. in an incubator containing 5% carbon dioxide gas. […] A DMSO solution of the test compounds was diluted with the medium used in the suspension of the each cells, and this was added to each of the wells of the cell culture plates such that the final concentration of DMSO would be 0.2%. The cells were further cultured for 3 days at 37° C. in an incubator containing 5% carbon dioxide gas. […] Proliferation inhibition ratio (%)=(C−T)/(C−C0)×100
T: Luminescence intensity of a well in which the test compound was added
C: Luminescence intensity of a well in which the test compound was not added
C0: Luminescence intensity of a well measured before the addition of the test compound
When a comparison is made between the cell proliferation inhibitory activity against A431 cells that depends on the EGFR proliferation signaling and the cell proliferation inhibitory activity against TMD8 cells that depends on the BTK proliferation signaling, the influence of the respective kinases at a cellular level is able to be evaluated. That is, when the “A431 cell proliferation inhibition ratio/TMD8 cell proliferation inhibition ratio” is calculated, it is contemplated that as the value of the ratio is larger, the selectivity to BTK over EGFR in the cells is higher.

| Compound | EGFR inhibitory activity IC50 value (nM)/BTK inhibitory activity IC50 value (nM) [1] | IC50 [2] [nM] | A431 cell proliferation inhibition ratio/TMD8 cell proliferation inhibitio ratio [3] |
| --- | --- | --- | --- |
| Nc1ncnc2c1c(C(=O)Nc1nc3cc(-c4ccccc4)ccc3o1)cn2[C@@H]1CCN(C(=O)/C=C/CN2CCCC2)C1 [Example 60, (R,E)-4-amino-N-(5-phenylbenzo[d]oxazol-2-yl)-7-(1-(4-(pyrrolidin-1-yl)but-2-enoyl)pyrrolidin-3-yl) 7H-pyrrolo[2,3-d]pyrimidine-5-carboxamide] | 32.4 | 1.88 |  |
| Nc1ncnc2c1c(C(=O)Nc1nc3cc(-c4ccccc4)ccc3o1)cn2[C@@H]1CCN(C(=O)/C=C/CN2CCCCC2)C1 [Example 61, (R,E)-4-amino-N-(5-phenylbenzo[d]oxazol-2-yl)-7-(1-(4-(piperidin-1-yl)but-2-enoyl)pyrrolidin-3-yl) 7H-pyrrolo[2,3-d]pyrimidine-5-carboxamide] | 67.5 | 2.34 |  |
| CN(C)C/C=C/C(=O)N1CC[C@H](n2nc(C(=O)Nc3nc4ccccc4o3)c3c(N)ncnc32)C1 [Example 73, (S,E)-4-amino-N-(benzo[d]oxazol-2-yl)-1-(1-(4-(dimethylamino)but-2-enoyl)pyrrolidin-3-yl)-1H-pyrazolo[3,4-d]pyrimidine-3-carboxamide] | 11.2 | 259 |  |
| C=CC(=O)N1CC(Cn2nc(C(=O)Nc3nc4cc(F)ccc4o3)c3c(N)ncnc32)C1 [Example 75, 1-((1-acryloylazetidin-3-yl)methyl)-4-amino-N-(5-fluorobenzo[d]oxazol-2-yl)-1H-pyrazolo[3,4-d]pyrimidine-3-carboxamide] | 58.2 |  | >1643.7 |
| C=CC(=O)N1CC(Cn2nc(C(=O)Nc3nc4cc(Cl)ccc4o3)c3c(N)ncnc32)C1 [Example 76, 1-((1-acryloylazetidin-3-yl)methyl)-4-amino-N-(5-chlorobenzo[d]oxazol-2-yl)-1H-pyrazolo[3,4-d]pyrimidine-3-carboxamide] | 11.4 |  | >2345.8 |
| C=CC(=O)N1CCC(Cn2nc(C(=O)Nc3nc4cc(F)ccc4o3)c3c(N)ncnc32)CC1 [Example 77, 1-((1-acryloylpiperidin-4-yl)methyl)-4-amino-N-(5-fluorobenzo[d]oxazol-2-yl)-1H-pyrazolo[3,4-d]pyrimidine-3-carboxamide] | 203.7 |  | >6793.5 |
| C=CC(=O)N[C@H]1CC[C@@H](n2nc(C(=O)Nc3nc4cc(Cl)ccc4o3)c3c(N)ncnc32)CC1 [Example 78, 1-((1S,4S)-4-acrylamidocyclohexyl)-4-amino-N-(5-chlorobenzo[d]oxazol-2-yl)-1H-pyrazolo[3,4-d]pyrimidine-3-carboxamide] | 100.7 |  | >23596.7 |
| C=CC(=O)N1CCC(Cn2nc(C(=O)Nc3nc4cc(Cl)ccc4o3)c3c(N)ncnc32)CC1 [Example 80, 1-((1-acryloylpiperidin-4-yl)methyl)-4-amino-N-(5-chlorobenzo[d]oxazol-2-yl)-1H-pyrazolo[3,4-d]pyrimidine-3-carboxamide] | 75.4 |  | 14348.9 |
| C=CC(=O)N[C@H]1CC[C@@H](n2nc(C(=O)Nc3nc4cc(F)ccc4o3)c3c(N)ncnc32)CC1 [Example 81, 1-((1S,4S)-4-acrylamidocyclohexyl)-4-amino-N-(5-fluorobenzo[d]oxazol-2-yl)-1H-pyrazolo[3,4-d]pyrimidine-3-carboxamide] | 204.9 |  | 8346.7 |
| (E)-4-amino-N-(5-chlorobenzo[d]oxazol-2-yl)-7-(1-(4-(dimethylamino)but-2-enoyl)azetidin-3-yl) 7H-pyrrolo[2,3-d]pyrimidine-5-carboxamide [Example 47] | 20.4 | 7.34 |  |
